{
  "source": "patent US11382949B2",
  "about": "“Anthelmintic depsipeptide compounds” (BOEHRINGER INGELHEIM ANIMAL HEALTH USA INC., priority 2016, dated 2022)",
  "system": "Microfilaria of Dirofilaria immitis",
  "assay": "Method A: screening of compounds against microfilaria of Dirofilaria immitis (microtitre plate, survival at 72 hours)",
  "assay_type": "cell-based",
  "conditions": "read-out: mean EC50 values",
  "data": [
    {"smiles": "C[C@H]1OC(=O)[C@H](CC(C)(C)C)N(C)C(=O)[C@@H](Cc2ccc(SC(F)(F)F)cc2)OC(=O)[C@H](CC(C)(C)F)N(C)C(=O)[C@@H](C)OC(=O)[C@H](CC(C)(C)C)N(C)C(=O)[C@@H](Cc2ccc(SC(F)(F)F)cc2)OC(=O)[C@H](CC(C)(C)F)N(C)C1=O", "note": "[44-46/1-4, (3S,6R,9S,12R,15S,18R,21S,24R)-3,15-bis(2-fluoro-2-methylpropyl)-4,6,10,16,18,22-hexamethyl-9,21-dineopentyl-12,24-bis(4-(trifluoromethylthio)benzyl)-1,7,13,19-tetraoxa-4,10,16,22-tetraazacyclotetracosan-2,5,8,11,14,17,20,23-octaone]", "values": [
      {"measurement": "EC50", "result": "< 1000", "unit": "nM"}
    ]}
  ]
}
